Laboratory results reported in patent US20250170099A1, “TREATMENT OF POSTNATAL DEPRESSION” (GH RESEARCH IRELAND LIMITED, priority 2022, published 2025).

Tested on: Salmonella typhimurium TA98, TA100, TA1535, TA1537 and Escherichia coli WP2 uvrA pKM101
Experiment: Bacterial mutation test
Type: cell-based
Description: These conditions included treatments at concentrations up to 5000 μg/plate (the maximum recommended concentration according to current regulatory guidelines), in the absence and in the presence of a rat liver metabolic activation system (S-9).

SMILES: COc1ccc2[nH]cc(CCN(C)C)c2c1 [5-MeO-DMT]
- in vitro genotoxicity assessment: negative
- mutation induction (up to 5000 μg/plate, without and with S-9): did not induce mutation
